Read-outs that look alike come from different tables or passages of the source. Starred links: 1 amine or outer side, 2 acyl side, 3 side chain; linkers in the order of their positions; H or OH if unused. Non-standard residues stand in square brackets, D forms with d. Residues, ends and D or L forms follow the SMILES beside them. X1 = O=C([C@H](Cc1ccc(NP(=O)(O)O)cc1)N[*:1])[*:2]
How the values were obtained:
[1] = target: T1, pAcFRS.1.t1 synthetase (Methanocaldococcus jannaschii, UniProt Q57834, A167D/D158G/D286R/I159C/L162R/R257G/Y32L); experiment: In vitro tRNA charging assay; format: biochemical; conditions: purified pAcFRS.1.t1, 1 mM amino acid
T1 construct: His; made in house
Method: The pAcFRS.1.t1 synthetase was His-purified, and stored in 50 mM KCl, 50 mM HEPES-KOH at pH 7.5, 10% glycerol. The cognate tRNA was in vitro transcribed (IVT) from dsDNA template containing a T7 promoter, hammerhead ribozyme and tRNA, as described previously(Fechter et al., 1998). The IVT buffer consists of 40 mM Tris-HCl at pH8.0, 0.01% Triton X, 30 mM MgCl2, 2 mM Spermidine, 1 mM DTT. For a 100 μL reaction, 4 mM riboNTPs (N0466S, NEB), 100U T7 (M0251S, NEB) and 1-2 μM dsDNA template were added. The reaction was incubated at 37° C. for 3 h. Afterwards, the sample was diluted 5× with reaction buffer, and heated to 65C for 1 h to promote hammerhead cleavage. After a phenol:chloroform extraction, the cleaved tRNA was separated from other fragments using a TBE-Urea gel. Finally, the tRNA was refolded by slowly cooling the sample from 95° C. to r.t. At 65° C., MgCl2 was added to a final concentration of 10 mM.
aaRS specificity was measured using in vitro charging. The reaction composition was 150 mM HEPES-KOH at pH 7.5, 10 mM MgCl2, 2.5 mM DTT, 0.2 mg/mL BSA, 2 mM ATP, 1 mM amino acid, 500 nM aaRS and 750 nM tRNA. The reactions were incubated at 37° C. for 30 min. Afterwards, they were quenched using loading buffer (0.1 M sodium acetate pH 5.0, 8 M urea, 0.05% bromophenol blue, 0.05% xylene cyanol FF). The samples were then analyzed on an acid-urea PAGE gel (8 M urea, 0.1 M sodium acetate at pH 5.2) (Varshney et al., 1991), that was prerun in running buffer (0.1 M NaOAc at pH 5.2) for 20 min at 13 W. After sample loading, the gel was run at a constant 13 W for 20 h. The tRNA was visualized with ethidium bromide staining.

[2] = target: Src SH2 domain (Homo sapiens, UniProt P12931); experiment: Fluorescence polarization assay, direct binding and competition with FITC-pTyrEEI
Method: They were then induced with 1 mM IPTG and grown overnight. Cells were pelleted prior to freezing at −80° C. Pellets were resuspended in lysis buffer (50 mM Tris, pH 8.0, 500 mM NaCl, 0.5 mM EDTA, 0.5 mM EGTA, 10% glycerol) and then sonicated. Clarified lysate was incubated with Glutathione Sepharose 4B resin, washed (50 mM Tris, pH 8.0, 50 mM NaCl, 10% glycerol) and eluted from resin in elution buffer (20 mM reduced glutathione, 50 mM Tris, pH 8.0, 50 mM NaCl, 10% glycerol, pH 8.0). […] Protein was stored at −80° C. […] Kd was established using one-site binding model in GraphPad Prism version 7 for Mac (GraphPad Software, La Jolla, CA, USA). Unlabeled peptides were diluted to 100 μM in assay buffer. […] A full-dissociation control was established with 10 nM peptide in assay buffer. […] EC50 for percent inhibition was estimated by plotting log10[agonist] vs. response and fitting a four-parameter variable slope fit in GraphPad Prism.

[3] = Reduction of pAzF to pAF under purification pH and temperatures (HRMS); format: physicochemical; conditions: pH 6.6, 7.2, 7.9; 4, 20, 34 or 80° C.
Excerpt: High-resolution mass spectrometry (HRMS) data was collected using an Agilent iFunnel 6550 Quadrupole Time-Of-Flight (QTOF) MS with an electrospray ionization (ESI) source, coupled to an Agilent Infinity 1290 ultra-high-performance liquid chromatography (UHPLC) system with an Agilent Eclipse Plus C18 1.8 μm, 4.6×50 mm column. Solvents used were (solvent A) water 0.1% formic acid and (solvent B) CH3CN 0.1% formic acid. Mass spectra were gathered using Dual Agilent Jet Stream (AJS) ESI in positive mode. The mass range was set from 110 to 1700 m/z with a scan speed of 3 scan/second. The capillary and nozzle voltages were set to 5500 and 2000 V, respectively. […] MS data were acquired with MassHunter Workstation Data Acquistion (Version B.06.01, Agilent Technologies) and analyzed using MassHunter Qualitative Analysis (Version B.07.00, Agilent Technologies). Protein quantification was performed using peptide standards with the same sequence as the digested peptides, or based on calibration curves produced using dilutions series of peptide(1TAG)-GFP.
Experiments were designed to assess if reduction of pAzF residues occurs during protein purification or MS analysis. Experiments evaluated if pAzF is reduced over a range of pH (6.6, 7.2, 7.9) and temperatures (4, 20, 34, or 80° C.) used during sample purification, and found minimal (<1%) reduction to pAF under all conditions. […]

T1 sequence (Q57834 whole entry Y32L/D158G/I159C/L162R/A167D/R257G/D286R): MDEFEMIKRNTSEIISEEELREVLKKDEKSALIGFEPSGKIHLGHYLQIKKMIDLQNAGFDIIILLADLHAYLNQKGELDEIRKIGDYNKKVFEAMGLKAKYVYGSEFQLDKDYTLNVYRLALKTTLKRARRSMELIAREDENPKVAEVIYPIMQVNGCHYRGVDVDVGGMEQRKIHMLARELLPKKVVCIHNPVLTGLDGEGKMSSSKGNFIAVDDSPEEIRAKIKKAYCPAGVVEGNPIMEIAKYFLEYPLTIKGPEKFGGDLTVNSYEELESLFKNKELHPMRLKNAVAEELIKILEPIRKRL

Nc1ccc(C[C@H](N)C(=O)O)cc1 [pAF, para-amino-phenylalanine]
charging onto the cognate tRNA [1]: no charging

CC[C@H](C)[C@H](NC(=O)[C@@H]1CCCN1C(=O)[C@@H](NC(=O)[C@H](CCC(=O)O)NC(=O)[C@H](CCC(=O)O)NC(=O)[C@H](Cc1ccc(NP(=O)(O)O)cc1)NC(=O)[C@H](CCC(N)=O)NC(=O)[C@@H]1CCCN1C(=O)[C@@H](N)CCC(=O)O)[C@@H](C)CC)C(=O)N[C@@H](Cc1ccc(O)cc1)C(=O)N[C@@H](CC(C)C)C(=O)O [pnY peptide] (H-EPQ[X1]EEIPIYL-OH; N-terminus and C-terminus assumed)
EC50 [2]: 12.8 µM
Decrease in binding affinity with SH2 ([2]; pnY peptide EC50 compared with […], Src SH2): 17 fold

EPQYEEIPIYL [Tyr peptide, reference compound]
EC50 ([2]; competition with FITC-labeled pTyr peptide): No increase in unbound FITC-pTyr peptide

[N-]=[N+]=Nc1ccc(C[C@H](N)C(=O)O)cc1 [pAzF, para-azido-phenylalanine]
reduction to pAF [3]: < 1%
charging onto the cognate tRNA [1]: charged

N[C@@H](Cc1ccc(O)cc1)C(=O)O [tyrosine]
charging onto the cognate tRNA [1]: no charging

— patent US20250270289A1, “SEQUENCE-DEFINED POLYMERS WITH ONE OR MORE AZIDES, METHODS OF MAKING, AND METHODS OF USE THEREOF” (Yale University, priority 2021, published 2025)
